Where two headings read alike, the source gives them in different places.
Experiment: Solvent vapor pressure at 20° C.
Text: The solvents used to formulate these compositions, along with a few select physical properties of each solvent, are summarized in Table 2, below.

| Compound | Solvent Vapor Pressure at 20° C. [torr] | Solvent Vapor Pressure at 20° C. (neat solvent, 20° C.) [torr] |
| --- | --- | --- |
| CCC(C)OC(=O)CC(C)O (stereo not shown) [2-butyl 3-hydroxybutyrate] | 0.098 | – |
| OCc1ccccc1 [Benzyl Alcohol] | 0.076 | – |
| CCCCOCCOCCO [Diethylene Glycol Monobutyl Ether] | – | 0.02 |
| CCOCCOCCO [Diethylene Glycol Monoethyl Ether] | 0.12 | – |
| CCCCOCCO [Ethylene glycol monobutyl ether] | – | 0.60 |
| C=C(C)[C@H]1CC=C(C)CC1 [d-limonene] | – | 1.5 |
| CC(C)COC(=O)CC(C)O (stereo not shown) [i-butyl 3-hydroxybutyrate] | 0.08 | – |
| CC(O)CC(=O)OC(C)C (stereo not shown) [i-propyl 3-hydroxybutyrate, isopropyl 3-hydroxybutyrate] | 0.17 | – |
| CCCCOC(=O)CC(C)O (stereo not shown) [n-butyl 3-hydroxybutyrate] | 0.06 | – |
| dibasic ester | – | 0.20 |
